These results are taken from US11931404B2, “Use of ultrarapid acting insulin” (MannKind Corporation, priority 2014, dated 2024).

For test [1] the following is noted: manufacturer's prescribing information (Mar. 2007 revision); cited from earlier work.
The test system of test [2] is subjects with type 1 diabetes. The experiment in a line: 52-week randomized controlled clinical trial, basal insulin + prandial TI Inhalation Powder versus basal insulin + SC insulin aspart. The conditions noted are these: with basal insulin glargine. The test is classed as in vivo, human. The source says: This was a prospective, multi-country, multicenter, open label, randomized, controlled clinical trial comparing glycemic control in subjects with type 1 diabetes receiving basal insulin and prandial insulin-FDKP (TI) Inhalation Powder (TI Inhalation Powder group) with subjects receiving basal insulin and SC rapid-acting insulin aspart (comparator group). This study included a 52-week treatment phase and a 4-week follow- up phase. During the 4-week follow-up phase, pulmonary function and select clinical laboratory assessments were scheduled.
The study began with enrollment at Week−3. Subjects received a complete battery of safety and eligibility assessments, including HbA1c and fasting plasma glucose (FPG).
At Week−1, subjects were randomized to one of the following 2 treatments: Basal insulin+prandial TI Inhalation Powder Basal insulin+prandial SC rapid-acting insulin
At Week-1, subjects again completed the first three components of the Insulin Treatment Questionnaire (ITQ) for the purpose of assessing test-retest reliability only). After completing the questionnaire, subjects randomized to the TI Inhalation Powder group were trained on the MEDTONE® Inhaler using TECHNOSPHERE®/insulin (insulin-FDKP) inhalation powder; subjects in the comparator group were trained in the use of the NOVOLOG® pens; all subjects were trained in administration of LANTUS®. Additionally, all subjects were trained on a blood glucose monitoring (HBGM) meter provided at the beginning of the trial and diary and received diabetes education. Any training was repeated at Week 0, if needed.
At the beginning of the treatment phase, subjects had several titration/dose evaluation visits to adjust insulin therapy. Titration visits occurred once a week for the first 4 weeks. During Weeks 4 through 10, there were three telephone “visits” (at Week 6, Week 8, and Week 10) to titrate dose, if necessary. However, dose titration was allowed throughout the trial.
All subjects completed a 7-point blood glucose profile on any 3 days during the week immediately preceding each visit from Week 0 to Week 52. The 7 time points included samples from before breakfast and 2 hours after breakfast, before the mid-day meal and 2 hours after the mid-day meal, before the evening meal and 2 hours after the evening meal and at bedtime (7 time points a day, over 3 days). These blood glucose (BG) values were recorded in the HBGM diary that was collected at clinic visits. […]
A meal challenge test was performed at Week 4 (during dose titration), Week 26, and Week 52. […] Blood glucose (BG) was also measured using HBGM glucose meters to aid the Investigator in treatment decisions and values were obtained at −30, 0, 60, and 120 minutes during the meal challenge. […]

Consider insulin glargine, for which the “period of relatively constant glucose lowering activity” value in test [1] was 24 h.
With insulin aspart, in test [2] (52 weeks), the “mean FPG at the end of the treatment period” value is given as 161.3 (SD 68.2) mg/dL. For the same substance, the “average body weight gain over the 52-week treatment period” value in test [2] was found to be 1.4 kg. For the same substance, the “HbA1c at Week 14” value in test [2] (baseline 8.41 (SD 0.92) TI arm, 8.48 (SD 0.97) insulin aspart arm) was 8.07 (SD 1.09) %. For the same substance, the “mean decrease in fasting plasma glucose (FPG) over the 52-week treatment period” value in test [2] (baseline 187.6 (SD 85.1) TI group, 180.8 (SD 86.9) comparator group) is 23.4 (SD 103.1) mg/dL.
